# Experimental data: PMC9127657 (Bioorganic & medicinal chemistry, 2021)
# pEC50: −log10 of the molar value.
# Tested on: HIV-1 NL4–3 Nanoluc-sec virus
# Experiment: not given
# Assay type: cell-based
# Details: concentration that inhibits HIV-1NL4–3 nanoluc-sec infection of MT-4 cells by 50%; three days
row,Compound,pEC50
1,"(S)-2-((3-(2,3-dihydro-1H-pyrrolo[3,4-c]pyridine-2-carbonyl)phenyl) sulfonamido)-N-(4-methoxyphenyl)-N-methyl-3-phenylpropanamide [Compound I-10c]",< 5.06

# Same assay, conditions: tested concentration 5 μg/mL, MT-4 cells
row,Compound,antiviral activity at the tested concentration
1,"COc1ccc(N(C)C(=O)[C@H](Cc2ccccc2)NS(=O)(=O)CC(=O)Nc2ccc3ncsc3c2)cc1 [II-13b, (S)-2-((2-(benzo[d]thiazol-6-ylamino)-2-oxoethyl)sulfonamido)-N-(4-methoxyphenyl)-N-methyl-3-phenylpropanamide]",lost their activity
2,"COc1ccc(N(C)C(=O)[C@H](Cc2ccccc2)NC(=O)c2cccc(S(=O)(=O)N3CCc4cc(OC)ccc43)c2)cc1 [Compound V-25e, (S)-3-((5-methoxyindolin-1-yl)sulfonyl)-N-(1-((4-methoxyphenyl) (methyl)amino)-1-oxo-3-phenylpropan-2-yl)benzamide]",loss of antiviral activity
3,"COc1ccc(N(C)C(=O)[C@H](Cc2ccccc2)NS(=O)(=O)CC(=O)N2CCc3cc([N+](=O)[O-])ccc32)cc1 [II-13 g, (S)-N-(4-methoxyphenyl)-N-methyl-2-((2-(5-nitroindolin-1-yl)-2-oxoethyl)sulfonamido)-3-phenylpropanamide]",lost their activity
4,"COc1ccc(N(C)C(=O)[C@H](Cc2ccccc2)NC(=O)c2cccc(S(=O)(=O)N3CCc4cc([N+](=O)[O-])ccc43)c2)cc1 [Compound V-25f, (S)-N-(1-((4-methoxyphenyl)(methyl)amino)-1-oxo-3-phenylpropan-2-yl)-3-((5-nitroindolin-1-yl)sulfonyl)benzamide]",loss of antiviral activity
5,"COc1ccc(N(C)C(=O)[C@H](Cc2ccccc2)NC(=O)c2cccc(S(=O)(=O)Nc3ccc(C(F)(F)F)cc3)c2)cc1 [Compound V-25j, (S)-N-(1-((4-methoxyphenyl)(methyl)amino)-1-oxo-3-phenylpropan-2-yl)-3-(N-(4-(trifluoromethyl)phenyl)sulfamoyl)benzamide]",loss of antiviral activity
6,"COc1ccc(N(C)C(=O)[C@H](Cc2ccccc2)NS(=O)(=O)CC(=O)Nc2cc(F)cc(F)c2)cc1 [II-13e, (S)-2-((2-((3,5-difluorophenyl)amino)-2-oxoethyl)sulfonamido)-N-(4-methoxyphenyl)-N-methyl-3-phenylpropanamide]",lost their activity
7,"COc1ccc(N(C)C(=O)[C@H](Cc2ccccc2)NS(=O)(=O)CC(=O)n2ncc3ccccc32)cc1 [II-13f, (S)-2-((2-(1H-indazol-1-yl)-2-oxoethyl)sulfonamido)-N-(4-methoxyphenyl)-N-methyl-3-phenylpropeanamide]",lost their activity
8,"COc1ccc(N(C)C(=O)[C@H](Cc2ccccc2)NS(=O)(=O)CC(=O)N2CCc3cc(OC)ccc32)cc1 [II-13d, (S)-2-((2-(5-methoxyindolin-1-yl)-2-oxoethyl)sulfonamido)-N-(4-methoxyphenyl)-N-methyl-3-phenylpropanamide]",lost their activity
9,"COc1ccc(N(C)C(=O)[C@H](Cc2ccccc2)NC(=O)c2cccc(S(=O)(=O)N3CCc4ccccc43)c2)cc1 [Compound V-25d, (S)-3-(indolin-1-ylsulfonyl)-N-(1-((4-methoxyphenyl)(methyl)amino)-1-oxo-3-phenylpropan-2-yl)benzamide]",loss of antiviral activity
10,"COc1ccc(N(C)C(=O)[C@H](Cc2ccccc2)NC(=O)c2cccc(S(=O)(=O)Nc3cc(F)cc(F)c3)c2)cc1 [V-25 h, (S)-3-(N-(3,5-difluorophenyl)sulfamoyl)-N-(1-((4-methoxyphenyl)(methyl)amino)-1-oxo-3-phenylpropan-2-yl)benzamide]",loss of antiviral activity

# Tested on: not listed separately
# Experiment: Cytotoxicity assay in MT-4 cells
# Assay type: cell-based
# Details: human, uninfected MT-4 cells
row,Compound,CC50 at 3 days [µM]
1,"COc1ccc(N(C)C(=O)[C@H](Cc2ccccc2)NC(=O)C(=O)Nc2ccc([N+](=O)[O-])cc2)cc1 [III-16f, (S)-N1-(1-((4-methoxyphenyl)(methyl)amino)-1-oxo-3-phenylpropan-2-yl)–N2-(4-nitrophenyl)oxalamide]",> 10.2

# Tested on: MT-4 cells
# Experiment: Cytotoxicity assay in MT-4 cells
# Assay type: cell-based
# Details: concentration required to reduce the viability of uninfected MT-4 cells by 50%; three days
row,Compound,CC50 [µM]
1,"(S)-2-((3-(2,3-dihydro-1H-pyrrolo[3,4-c]pyridine-2-carbonyl)phenyl) sulfonamido)-N-(4-methoxyphenyl)-N-methyl-3-phenylpropanamide [Compound I-10c]",> 8.76
